Reference: publication PMC6749364, “Pharmacokinetics and Tissue Distribution of Alnustone in Rats after Intravenous Administration by Liquid Chromatography-Mass Spectrometry” (Molecules, 2019)

What was measured:
[1] = Stability of alnustone in rat plasma and tissue homogenates (QC samples); assay type: in vitro ADME, rats; settings: in % (unit assumed)
Protocol: The calibration standards were prepared by spiking a certain volume of blank plasma or blank tissue homogenates with appropriate amounts of working solutions to yield a final concentration range from 1 to 2000 ng/mL. The effective concentrations of alnustone were 1, 5, 10, 40, 160, 200, 800, 2000 ng/mL for the plasma samples and tissue homogenates samples (heart, liver, spleen, lung, kidney, brain, stomach, intestine). […]
The stability tests involved the following four conditions. The short-term stability study was examined by analyzing samples at room temperature for 4 h. The long-term stability study was performed by analyzing samples stored at −75 °C for 1 month. For the freeze-thaw stability study, the samples were analyzed after three freeze/thaw cycles (−75 °C to 25 °C). The post-preparative storage stability was assessed by analyzing the samples left in autosampler vials at 4 °C for 24 h. The stability analysis was performed using three aliquots of each QC samples at three different concentrations. The samples were considered stable if the assay values were within the acceptable limits of accuracy (±15% RE) and precision (≤15% RSD).

[2] = obtained by our previous pharmacological experiment; cited from earlier work
neuraminidase = test system: neuraminidase; parameters: method as in PMID 20014777; settings: cited from earlier work
[3] = test system: Bel-7402 (human hepatocellular carcinoma cells); parameters: method as in earlier work; settings: Bel-7402 cell line; cited from earlier work
[4] = Brain homogenate, QC 1600 ng/mL
[5] = Heart homogenate, QC 1600 ng/mL
[6] = Intestine homogenate, QC 1 ng/mL
[7] = Intestine homogenate, QC 5 ng/mL
[8] = Intestine homogenate, QC 100 ng/mL
[9] = Intestine homogenate, QC 1600 ng/mL
[10] = Kidney homogenate, QC 100 ng/mL
[11] = Kidney homogenate, QC 1600 ng/mL
[12] = Liver homogenate, QC 1600 ng/mL
[13] = Spleen homogenate, QC 100 ng/mL
[14] = Spleen homogenate, QC 1600 ng/mL

## O=C(/C=C/C=C/c1ccccc1)CCc1ccccc1 [alnustone, Alnustone]
[1]; Brain homogenate, QC 1 ng/mL
  Stability: Autosampler 4 °C for 24 h: 109.2 ± 6.7
  Stability: Short-Term (at Room Temperature for 4 h): 110.6 ± 5.8
  Stability: Storage at −75°C for 30 d: 103.8 ± 4.1
  Stability: Three Freeze-Thraw Cycles: 86.5 ± 6.1
[1]; Brain homogenate, QC 5 ng/mL
  Stability: Autosampler 4 °C for 24 h: 104.9 ± 7.0
  Stability: Short-Term (at Room Temperature for 4 h): 109.0± 4.4
  Stability: Storage at −75°C for 30 d: 108.9 ± 3.8
  Stability: Three Freeze-Thraw Cycles: 89.2 ± 4.6
[1]; Brain homogenate, QC 100 ng/mL
  Stability: Autosampler 4 °C for 24 h: 95.4 ± 5.7
  Stability: Short-Term (at Room Temperature for 4 h): 99.3 ± 7.5
  Stability: Storage at −75°C for 30 d: 90.2 ± 7.4
  Stability: Three Freeze-Thraw Cycles: 98.0 ± 8.1
[1]; [4]
  Stability: Autosampler 4 °C for 24 h: 104.2 ± 4.9
  Stability: Short-Term (at Room Temperature for 4 h): 96.3 ± 7.4
  Stability: Storage at −75°C for 30 d: 112.3 ± 8.9
  Stability: Three Freeze-Thraw Cycles: 110.2 ± 6.8
[1]; Heart homogenate, QC 100 ng/mL
  Stability: Autosampler 4 °C for 24 h: 89.0 ± 3.4
  Stability: Storage at −75°C for 30 d: 112.4 ± 4.0
  Stability: Three Freeze-Thraw Cycles: 104.8 ± 6.6
[1]; [5]
  Stability: Autosampler 4 °C for 24 h: 90.3 ± 5.2
  Stability: Short-Term (at Room Temperature for 4 h): 91.8 ± 5.8
  Stability: Storage at −75°C for 30 d: 95.6 ± 5.4
  Stability: Three Freeze-Thraw Cycles: 95.3 ± 9.0
[1]; [6]
  Stability: Autosampler 4 °C for 24 h: 90.0 ± 5.7
  Stability: Short-Term (at Room Temperature for 4 h): 89.6 ± 8.1
  Stability: Storage at −75°C for 30 d: 96.5 ± 5.7
  Stability: Three Freeze-Thraw Cycles: 113.7 ± 8.7
[1]; [7]
  Stability: Autosampler 4 °C for 24 h: 90.9 ± 5.0
  Stability: Short-Term (at Room Temperature for 4 h): 95.8 ± 7.7
  Stability: Storage at −75°C for 30 d: 92.6 ± 3.7
  Stability: Three Freeze-Thraw Cycles: 108.7 ± 9.4
[1]; [8]
  Stability: Autosampler 4 °C for 24 h: 98.0 ± 4.9
  Stability: Short-Term (at Room Temperature for 4 h): 95.3 ± 6.7
  Stability: Storage at −75°C for 30 d: 114.4 ± 4.9
  Stability: Three Freeze-Thraw Cycles: 96.9 ± 3.8
[1]; [9]
  Stability: Autosampler 4 °C for 24 h: 103.0 ± 8.4
  Stability: Short-Term (at Room Temperature for 4 h): 105.9 ± 7.1
  Stability: Storage at −75°C for 30 d: 107.0 ± 4.3
  Stability: Three Freeze-Thraw Cycles: 113.6 ± 2.8
[1]; Kidney homogenate, QC 1 ng/mL
  Stability: Autosampler 4 °C for 24 h: 116.5 ± 8.0
  Stability: Short-Term (at Room Temperature for 4 h): 107.8 ± 7.5
  Stability: Storage at −75°C for 30 d: 89.8 ± 8.1
  Stability: Three Freeze-Thraw Cycles: 93.7 ± 7.0
[1]; Kidney homogenate, QC 5 ng/mL
  Stability: Autosampler 4 °C for 24 h: 114.1 ± 7.4
  Stability: Short-Term (at Room Temperature for 4 h): 110.7 ± 6.6
  Stability: Storage at −75°C for 30 d: 88.5 ± 6.4
  Stability: Three Freeze-Thraw Cycles: 95.7 ± 5.7
[1]; [10]
  Stability: Autosampler 4 °C for 24 h: 108.0 ± 5.7
  Stability: Short-Term (at Room Temperature for 4 h): 109.7 ± 8.3
  Stability: Storage at −75°C for 30 d: 111.0 ± 7.5
  Stability: Three Freeze-Thraw Cycles: 90.9 ± 7.0
[1]; [11]
  Stability: Autosampler 4 °C for 24 h: 95.9 ± 6.0
  Stability: Short-Term (at Room Temperature for 4 h): 100.7 ± 7.0
  Stability: Storage at −75°C for 30 d: 100.5 ± 10.6
  Stability: Three Freeze-Thraw Cycles: 112.5 ± 5.2
[1]; Liver homogenate, QC 1 ng/mL
  Stability: Autosampler 4 °C for 24 h: 93.1 ± 5.7
  Stability: Short-Term (at Room Temperature for 4 h): 98.8 ± 6.8
  Stability: Storage at −75°C for 30 d: 111.5 ± 6.9
  Stability: Three Freeze-Thraw Cycles: 101.5 ± 10.1
[1]; Liver homogenate, QC 5 ng/mL
  Stability: Autosampler 4 °C for 24 h: 95.3 ± 3.2
  Stability: Short-Term (at Room Temperature for 4 h): 95.4 ± 5.8
  Stability: Storage at −75°C for 30 d: 106.5 ± 10.1
  Stability: Three Freeze-Thraw Cycles: 98.8 ± 9.9
[1]; Liver homogenate, QC 100 ng/mL
  Stability: Autosampler 4 °C for 24 h: 101.3 ± 5.6
  Stability: Short-Term (at Room Temperature for 4 h): 111.0 ± 4.9
  Stability: Storage at −75°C for 30 d: 105.4 ± 7.2
  Stability: Three Freeze-Thraw Cycles: 108.4 ± 7.8
[1]; [12]
  Stability: Autosampler 4 °C for 24 h: 94.8 ± 7.7
  Stability: Short-Term (at Room Temperature for 4 h): 106.4 ± 6.0
  Stability: Storage at −75°C for 30 d: 97.7 ± 6.8
  Stability: Three Freeze-Thraw Cycles: 98.3 ± 6.3
[1]; Lung homogenate, QC 1 ng/mL
  Stability: Autosampler 4 °C for 24 h: 105.8 ± 7.0
  Stability: Short-Term (at Room Temperature for 4 h): 89.5 ± 7.6
  Stability: Storage at −75°C for 30 d: 103.4 ± 8.7
  Stability: Three Freeze-Thraw Cycles: 108.2 ± 9.5
[1]; Lung homogenate, QC 5 ng/mL
  Stability: Autosampler 4 °C for 24 h: 103.4 ± 7.1
  Stability: Short-Term (at Room Temperature for 4 h): 92.4 ± 6.4
  Stability: Storage at −75°C for 30 d: 93.0 ± 9.6
  Stability: Three Freeze-Thraw Cycles: 105.8 ± 8.7
[1]; Lung homogenate, QC 100 ng/mL
  Stability: Autosampler 4 °C for 24 h: 98.4 ± 5.4
  Stability: Short-Term (at Room Temperature for 4 h): 106.4 ± 8.6
  Stability: Storage at −75°C for 30 d: 101.0 ± 7.5
  Stability: Three Freeze-Thraw Cycles: 94.4 ± 2.6
[1]; Lung homogenate, QC 1600 ng/mL
  Stability: Autosampler 4 °C for 24 h: 100.6 ± 9.7
  Stability: Short-Term (at Room Temperature for 4 h): 91.2 ± 6.8
  Stability: Storage at −75°C for 30 d: 92.3 ± 6.3
  Stability: Three Freeze-Thraw Cycles: 93.8 ± 4.6
[1]; Spleen homogenate, QC 1 ng/mL
  Stability: Autosampler 4 °C for 24 h: 108.0 ± 6.0
  Stability: Short-Term (at Room Temperature for 4 h): 108.5± 6.4
  Stability: Storage at −75°C for 30 d: 102.3 ± 4.9
  Stability: Three Freeze-Thraw Cycles: 101.2 ± 7.4
[1]; Spleen homogenate, QC 5 ng/mL
  Stability: Autosampler 4 °C for 24 h: 101.8 ± 4.3
  Stability: Short-Term (at Room Temperature for 4 h): 114.7 ± 5.8
  Stability: Storage at −75°C for 30 d: 98.1 ± 3.9
  Stability: Three Freeze-Thraw Cycles: 106.2 ± 6.9
[1]; [13]
  Stability: Autosampler 4 °C for 24 h: 92.9 ± 6.5
  Stability: Short-Term (at Room Temperature for 4 h): 107.5 ± 8.9
  Stability: Storage at −75°C for 30 d: 114.3 ± 6.6
  Stability: Three Freeze-Thraw Cycles: 105.3 ± 3.1
[1]; [14]
  Stability: Autosampler 4 °C for 24 h: 102.1 ± 9.3
  Stability: Short-Term (at Room Temperature for 4 h): 104.4 ± 6.1
  Stability: Storage at −75°C for 30 d: 104.0 ± 3.2
  Stability: Three Freeze-Thraw Cycles: 92.9 ± 7.6
[2]
  LD50: 200 mg/kg
neuraminidase
  neuraminidase inhibitory activity: showed neuraminidase inhibitory activity
[3]
  antitumor activity in vitro: significant antitumor activity
